Assay [1] can be described thus: stopped-flow CO2 hydration assay. Format: biochemical, Homo sapiens. The settings on record: read-out: KI (nM) ^* / hCA I. The text has this: (§1) stopped-flow CO2 hydration assay on hCA II
A further assay has as its target T1, hCA I (Homo sapiens, UniProt P00915).
T1 construct: gene CA1; cytosolic isoform
As to the kind of experiment: stopped-flow CO2 hydration assay. It is filed as biochemical. The text has this: stopped-flow CO2 hydration assay on hCA I

The next assay has as its target T2, hCA II (Homo sapiens, UniProt P00918).
T2 construct: gene CA2; cytosolic isoform
The experiment in a line: stopped-flow CO2 hydration assay. Format: biochemical.
Text: as §1

Structures are written as SMILES. Read-outs that look alike come from different tables or passages of the source.

T1 sequence (P00915 2-261): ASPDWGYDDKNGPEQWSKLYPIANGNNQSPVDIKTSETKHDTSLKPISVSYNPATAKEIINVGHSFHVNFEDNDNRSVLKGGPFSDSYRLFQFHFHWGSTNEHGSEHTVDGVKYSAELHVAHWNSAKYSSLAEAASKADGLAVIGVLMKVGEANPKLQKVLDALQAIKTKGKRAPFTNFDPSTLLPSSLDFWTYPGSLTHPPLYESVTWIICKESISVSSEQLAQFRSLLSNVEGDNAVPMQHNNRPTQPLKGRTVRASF

`CCOC(=O)c1cnc2cc(Cl)c(F)cc2c1Nc1cccc(S(=O)(=O)NC)c1` [compound 11, Ethyl 7-chloro-6-fluoro-4-((3-(N-methylsulphamoyl)phenyl)amino)quinoline-3-carboxylate]: the Ki (in assay [1]; at hCA I) was greater than 10000 nM each time.

`CCOC(=O)c1cnc2cc(Cl)c(F)cc2c1Nc1cccc(S(N)(=O)=O)c1` [6e, Ethyl 7-chloro-6-fluoro-4-((3-sulphamoylphenyl)amino)quinoline-3-carboxylate]: the Ki was 83.3 nM on hCA II (CO2 […], […] Hepes pH […] Na2SO4, […] min preincubation at room temperature) and 7600 nM at hCA I.

As to `CCOC(=O)c1cnc2cc(Cl)cc(Cl)c2c1Nc1cccc(S(N)(=O)=O)c1` [6f, Ethyl 5,7-dichloro-4-((3-sulphamoylphenyl)amino)quinoline-3-carboxylate], the Ki (in assay [1]; on hCA I) was greater than 10000 nM throughout.

For `CCOC(=O)c1cnc2ccc(C)cc2c1Nc1cccc(S(N)(=O)=O)c1` [6b, Ethyl 6-methyl-4-((3-sulphamoylphenyl)amino)quinoline-3-carboxylate], the values for the Ki at hCA II and on hCA I were 782 nM and 6640 nM, respectively.

Turning to `CCOC(=O)c1cnc2ccccc2c1Nc1cccc(S(N)(=O)=O)c1` [6a, Ethyl 4-((3-sulphamoylphenyl)amino)quinoline-3-carboxylate], the Ki on hCA II amounted to 223 nM; at hCA I it was 4230 nM.

In the case of `CCOC(=O)c1cnc2ccc(Br)cc2c1Nc1cccc(S(N)(=O)=O)c1` [6d, Ethyl 6-bromo-4-((3-sulphamoylphenyl)amino)quinoline-3-carboxylate], the Ki at hCA II came to 3590 nM; at hCA I, 9090 nM.

With `CCOC(=O)c1cnc2ccc(OC)cc2c1Nc1cccc(S(N)(=O)=O)c1` [6c, Ethyl 6-methoxy-4-((3-sulphamoylphenyl)amino)quinoline-3-carboxylate], the Ki at hCA II turned out to be 175 nM; on hCA I it was 966 nM.

(Values after PMC6713088, “Synthesis and biological evaluation of novel 3-(quinolin-4-ylamino)benzenesulfonamides as carbonic anhydrase isoforms I and II inhibitors” (Journal of Enzyme Inhibition and Medicinal Chemistry, 2019).)
